Reference: PubChem BioAssay (NCI)
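1) Cells in 96-well plates. 2) Compound, 48 h, 5 concentrations. 3) Linear interpolation between surrounding doses. 4) Unreached endpoint = highest concentration. GI50 is the concentration that inhibits growth by half. TGI is the concentration that stops growth completely.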

Experiments:
Assay in all cases: growth of human tumour cells (NCI), 48 h
DU-145 prostate = tested on: DU-145 prostate
NCI-H226 lung = tested on: NCI-H226 lung
NCI-H522 lung = tested on: NCI-H522 lung
OVCAR-8 ovarian = tested on: OVCAR-8 ovarian
IGROV1 ovarian = tested on: IGROV1 ovarian
EKVX NSCLC = tested on: EKVX NSCLC
SK-MEL-28 melanoma = tested on: SK-MEL-28 melanoma
MOLT-4 leukemia = tested on: MOLT-4 leukemia
M14 melanoma = tested on: M14 melanoma
RXF 393 renal = tested on: RXF 393 renal

COc1cc2c3c(n(CCCN)c(=O)c2cc1OC)-c1ccc(F)cc1C3=O
GI50 (DU-145 prostate): 0.788 µM
TGI (DU-145 prostate): 2.03 µM
GI50 (NCI-H226 lung): 7.87 µM
TGI (NCI-H226 lung): 27.2 µM
GI50 (NCI-H522 lung): 2.35 µM
TGI (NCI-H522 lung): 20.3 µM
GI50 (OVCAR-8 ovarian): 3.07 µM
TGI (OVCAR-8 ovarian): 11.3 µM
GI50 (IGROV1 ovarian): 1.82 µM
TGI (IGROV1 ovarian): 7.68 µM
GI50 (EKVX NSCLC): 11.6 µM
TGI (EKVX NSCLC): 25.1 µM
GI50 (SK-MEL-28 melanoma): 12.6 µM
TGI (SK-MEL-28 melanoma): 26.9 µM
GI50 (MOLT-4 leukemia): 0.385 µM
TGI (MOLT-4 leukemia): 4.13 µM
GI50 (M14 melanoma): 1.44 µM
TGI (M14 melanoma): 11.4 µM
GI50 (RXF 393 renal): 7.64 µM
TGI (RXF 393 renal): 26.6 µM

COC(=O)c1ccccc1NC(=O)C(=O)CC(=O)c1ccccc1NC1=CC(=O)C(=O)c2ccccc21
TGI (DU-145 prostate): > 53.8 µM
TGI (NCI-H226 lung): 49.7 µM
TGI (NCI-H522 lung): 21.4 µM
TGI (OVCAR-8 ovarian): 60.9 µM
TGI (IGROV1 ovarian): > 59.6 µM
TGI (EKVX NSCLC): > 100 µM
TGI (SK-MEL-28 melanoma): 29.4 µM
TGI (MOLT-4 leukemia): 51.1 µM
TGI (M14 melanoma): 17.9 µM
TGI (RXF 393 renal): 57.5 µM

COc1cc2c3c(n(CCN)c(=O)c2cc1OC)-c1cc2c(cc1C3=O)OCO2
GI50 (DU-145 prostate): 0.0401 µM
TGI (DU-145 prostate): 1.13 µM
GI50 (NCI-H226 lung): 0.769 µM
TGI (NCI-H226 lung): 2.55 µM
GI50 (NCI-H522 lung): 0.771 µM
TGI (NCI-H522 lung): 6.57 µM
GI50 (OVCAR-8 ovarian): 1.12 µM
GI50 (IGROV1 ovarian): 1.53 µM
TGI (IGROV1 ovarian): 4.74 µM
GI50 (EKVX NSCLC): 1.59 µM
TGI (EKVX NSCLC): 3.97 µM
GI50 (SK-MEL-28 melanoma): 1.55 µM
TGI (SK-MEL-28 melanoma): 3.44 µM
GI50 (MOLT-4 leukemia): 0.084 µM
TGI (MOLT-4 leukemia): > 100 µM
GI50 (M14 melanoma): < 0.0185 µM
TGI (M14 melanoma): 1.41 µM
GI50 (RXF 393 renal): 1.54 µM
TGI (RXF 393 renal): 4.06 µM

CC[N+](CC)=c1ccc2nc3c(cc(NCc4ccccc4)c4ccccc43)oc-2c1
GI50 (DU-145 prostate): 0.155 µM
TGI (DU-145 prostate): 0.291 µM
GI50 (NCI-H226 lung): 0.358 µM
TGI (NCI-H226 lung): 1.83 µM
GI50 (NCI-H522 lung): 0.149 µM
TGI (NCI-H522 lung): 0.567 µM
GI50 (OVCAR-8 ovarian): 0.362 µM
TGI (OVCAR-8 ovarian): 2.38 µM
GI50 (IGROV1 ovarian): 0.258 µM
TGI (IGROV1 ovarian): 1.67 µM
GI50 (EKVX NSCLC): 0.159 µM
TGI (EKVX NSCLC): 0.944 µM
GI50 (SK-MEL-28 melanoma): 1.2 µM
TGI (SK-MEL-28 melanoma): 2.47 µM
GI50 (MOLT-4 leukemia): 0.346 µM
TGI (MOLT-4 leukemia): 3.17 µM
GI50 (M14 melanoma): 0.273 µM
TGI (M14 melanoma): 0.75 µM
GI50 (RXF 393 renal): 0.781 µM
TGI (RXF 393 renal): 2.12 µM

NC(=O)c1[nH]nc(C2OC(CO)C(O)C2O)c1O (configuration not stated)
TGI (DU-145 prostate): > 5000 µM
TGI (NCI-H226 lung): 2220 µM
TGI (NCI-H522 lung): 1050 µM
TGI (OVCAR-8 ovarian): 212 µM
TGI (IGROV1 ovarian): 1280 µM
TGI (EKVX NSCLC): 1960 µM
TGI (SK-MEL-28 melanoma): > 5000 µM
TGI (MOLT-4 leukemia): 386 µM
TGI (M14 melanoma): 882 µM
TGI (RXF 393 renal): 551 µM

Cc1cc(S(=O)(=O)Nc2nc3ccsc3c(=O)n2Cc2ccco2)c(S)cc1Cl
GI50 (DU-145 prostate): > 100 µM
TGI (DU-145 prostate): > 100 µM
GI50 (NCI-H226 lung): > 100 µM
TGI (NCI-H226 lung): > 100 µM
GI50 (NCI-H522 lung): > 100 µM
TGI (NCI-H522 lung): > 100 µM
GI50 (OVCAR-8 ovarian): > 100 µM
TGI (OVCAR-8 ovarian): > 100 µM
GI50 (IGROV1 ovarian): > 100 µM
TGI (IGROV1 ovarian): > 100 µM
GI50 (EKVX NSCLC): > 100 µM
TGI (EKVX NSCLC): > 100 µM
GI50 (SK-MEL-28 melanoma): > 100 µM
TGI (SK-MEL-28 melanoma): > 100 µM
GI50 (MOLT-4 leukemia): 19.4 µM
TGI (MOLT-4 leukemia): 84.2 µM
GI50 (M14 melanoma): > 100 µM
TGI (M14 melanoma): > 100 µM
GI50 (RXF 393 renal): > 100 µM
TGI (RXF 393 renal): > 100 µM

COc1cc2cc(Oc3ccc(NC(=O)Nc4ccccc4)cc3)c(C)nc2cc1OCCN1CCCCC1
GI50 (DU-145 prostate): 5.92 µM
TGI (DU-145 prostate): 11.4 µM
GI50 (NCI-H226 lung): 5.82 µM
TGI (NCI-H226 lung): 12 µM
GI50 (NCI-H522 lung): 6.22 µM
TGI (NCI-H522 lung): 13 µM
GI50 (OVCAR-8 ovarian): 6.26 µM
TGI (OVCAR-8 ovarian): 15.3 µM
GI50 (IGROV1 ovarian): 5.68 µM
TGI (IGROV1 ovarian): 11 µM
GI50 (EKVX NSCLC): 5.22 µM
TGI (EKVX NSCLC): 10.9 µM
GI50 (SK-MEL-28 melanoma): 5.41 µM
TGI (SK-MEL-28 melanoma): 9.92 µM
GI50 (MOLT-4 leukemia): 4.98 µM
TGI (MOLT-4 leukemia): 11.7 µM
GI50 (M14 melanoma): 5.63 µM
TGI (M14 melanoma): 11.1 µM
GI50 (RXF 393 renal): 4.42 µM
TGI (RXF 393 renal): 8.99 µM

O=C1C=CC(=O)C1(Br)Br
TGI (DU-145 prostate): 39 µM
TGI (NCI-H226 lung): 38.2 µM
TGI (NCI-H522 lung): 14.4 µM
TGI (OVCAR-8 ovarian): 24.1 µM
TGI (IGROV1 ovarian): 13.7 µM
TGI (EKVX NSCLC): 29.7 µM
TGI (SK-MEL-28 melanoma): 21.8 µM
TGI (MOLT-4 leukemia): > 100 µM
TGI (M14 melanoma): 38.1 µM
TGI (RXF 393 renal): 15.9 µM

CN(C)CCNC(=O)c1cccc2cc3ccccc3nc12
GI50 (DU-145 prostate): 1.8 µM
TGI (DU-145 prostate): 4.37 µM
GI50 (NCI-H226 lung): 0.961 µM
TGI (NCI-H226 lung): 3.85 µM
GI50 (NCI-H522 lung): 1.32 µM
TGI (NCI-H522 lung): 3.12 µM
GI50 (OVCAR-8 ovarian): 0.62 µM
TGI (OVCAR-8 ovarian): 7.73 µM
GI50 (IGROV1 ovarian): 1.47 µM
TGI (IGROV1 ovarian): > 22 µM
GI50 (EKVX NSCLC): 2.25 µM
TGI (EKVX NSCLC): 7.81 µM
GI50 (SK-MEL-28 melanoma): 1.97 µM
TGI (SK-MEL-28 melanoma): 4.41 µM
GI50 (MOLT-4 leukemia): 0.399 µM
TGI (MOLT-4 leukemia): 7.95 µM
GI50 (M14 melanoma): 1.43 µM
TGI (M14 melanoma): 3.29 µM
GI50 (RXF 393 renal): 1.42 µM
TGI (RXF 393 renal): 4.13 µM

CS(=O)(=O)N1CCN(Cc2cc3nc(-c4cccc5[nH]ncc45)nc(N4CCOCC4)c3s2)CC1 (tested in a mixture with another compound)
GI50 (DU-145 prostate): 0.0837 µM
GI50 (NCI-H226 lung): 0.374 µM
GI50 (NCI-H522 lung): 0.375 µM
TGI (NCI-H522 lung): 13 µM
GI50 (OVCAR-8 ovarian): 0.154 µM
GI50 (IGROV1 ovarian): 0.0324 µM
TGI (IGROV1 ovarian): 0.188 µM
GI50 (EKVX NSCLC): 0.087 µM
GI50 (SK-MEL-28 melanoma): 0.21 µM
GI50 (MOLT-4 leukemia): 0.0608 µM
GI50 (M14 melanoma): 0.277 µM
GI50 (RXF 393 renal): 0.0792 µM
TGI (RXF 393 renal): 0.371 µM

O=C1c2cccnc2-c2nc(/C=C/c3ccccc3)cc3c2c1nc1ccccc13
GI50 (DU-145 prostate): 1.76 µM
TGI (DU-145 prostate): 3.58 µM
GI50 (NCI-H226 lung): 10.1 µM
TGI (NCI-H226 lung): 28 µM
GI50 (NCI-H522 lung): 1.76 µM
TGI (NCI-H522 lung): 3.47 µM
GI50 (OVCAR-8 ovarian): 3.8 µM
TGI (OVCAR-8 ovarian): > 30 µM
GI50 (IGROV1 ovarian): 1.59 µM
TGI (IGROV1 ovarian): 4.44 µM
GI50 (EKVX NSCLC): 2.82 µM
TGI (EKVX NSCLC): 14 µM
GI50 (SK-MEL-28 melanoma): 2.3 µM
TGI (SK-MEL-28 melanoma): 4.18 µM
GI50 (MOLT-4 leukemia): 1.57 µM
TGI (MOLT-4 leukemia): 10.8 µM
GI50 (M14 melanoma): 1.73 µM
TGI (M14 melanoma): 3.58 µM
GI50 (RXF 393 renal): 14.8 µM
TGI (RXF 393 renal): 37.1 µM

COc1c2ccccc2c(O)c2c(=O)c(C(=O)O)cn(C)c12
GI50 (DU-145 prostate): > 100 µM
TGI (DU-145 prostate): > 100 µM
GI50 (NCI-H226 lung): 17.4 µM
TGI (NCI-H226 lung): > 100 µM
GI50 (NCI-H522 lung): > 100 µM
TGI (NCI-H522 lung): > 100 µM
GI50 (OVCAR-8 ovarian): > 100 µM
TGI (OVCAR-8 ovarian): > 100 µM
GI50 (IGROV1 ovarian): > 100 µM
TGI (IGROV1 ovarian): > 100 µM
GI50 (EKVX NSCLC): 85.2 µM
TGI (EKVX NSCLC): > 100 µM
GI50 (SK-MEL-28 melanoma): 65 µM
TGI (SK-MEL-28 melanoma): > 100 µM
GI50 (MOLT-4 leukemia): > 100 µM
TGI (MOLT-4 leukemia): > 100 µM
GI50 (M14 melanoma): > 100 µM
TGI (M14 melanoma): > 100 µM
GI50 (RXF 393 renal): 80.3 µM
TGI (RXF 393 renal): > 100 µM
